In patent US11149062B2, “HDAC inhibitors and methods of treatment using the same” (UWM Research Foundation, Inc., priority 2015, dated 2021):

How the values were obtained:
[1] = in vivo; conditions: BALB/c, mouse, in vivo, ip
Source text: BALB/c mice were purchased from The Jackson Laboratory (Bar Harbor, Me.) and used between 7 and 10 weeks of age. Mice were housed in a conventional animal vivarium and were given free access to food and water. All studies and procedures were approved by the Animal Care and Use Committee of the University of Wisconsin, Milwaukee.
Each animal was initially weighed using a digital scale and then intraperitoneally (IP) injected with the compounds (listed in Table 2). A single mouse was given a single IP dose of 200 mg/kg, body weight, a second mouse received a dose of 100 mg/kg and a third mouse received a single dose of 50 mg/kg. The mice were observed and weighed every other day for a period of 2 weeks. They were euthanized if they lost more than 20% of their body weight or if there were other signs of significant toxicity. […] This process was repeated until a tolerated dose was found, and the MTD value was determined.
To determine the MTD in vivo, the compounds listed above were injected intraperitoneally into BALB/c mice and morbidity and mortality were monitored over two weeks.

[2] = test system: HCT-116 (colon cancer); experiment: MTT antiproliferative assay, HCT-116; assay type: cell-based; conditions: Homo sapiens, HCT-116; MTT, 48 h; read-out: Antiproliferative Activity GI50, Colon HCT-116
Description: (§1) Briefly, the tumor cells (1×10^4 cells/well) were seeded in 96-well microtiter plates and incubated for 24 h at 37° C. Following incubation, the media was replaced with fresh media containing the above compounds at concentrations ranging from 1 μM to 1 pM diluted in DMSO and incubated for an additional 48 h. Drugs were run in duplicate or triplicate and control cells received fresh media with DMSO concentration equivalent to the treatment groups. […] After aspirating the culture medium, 200 μL of DMSO was added to dissolve the precipitate and the resulting solution was measured for absorbance at 570 nm with a reference wavelength of 690 nm using a microplate reader (Infinite M200 Pro TECAN).

[3] = target: T1, Recombinant human HDAC8 (Homo sapiens, UniProt Q9BY41); experiment: HDAC-Glo I/II assay, HDAC8; assay type: biochemical; conditions: Class I HDAC; compounds reduced by TCEP prior to assay
T1 construct: purchased BPS Bioscience Inc
T1 sequence (Q9BY41 1-377): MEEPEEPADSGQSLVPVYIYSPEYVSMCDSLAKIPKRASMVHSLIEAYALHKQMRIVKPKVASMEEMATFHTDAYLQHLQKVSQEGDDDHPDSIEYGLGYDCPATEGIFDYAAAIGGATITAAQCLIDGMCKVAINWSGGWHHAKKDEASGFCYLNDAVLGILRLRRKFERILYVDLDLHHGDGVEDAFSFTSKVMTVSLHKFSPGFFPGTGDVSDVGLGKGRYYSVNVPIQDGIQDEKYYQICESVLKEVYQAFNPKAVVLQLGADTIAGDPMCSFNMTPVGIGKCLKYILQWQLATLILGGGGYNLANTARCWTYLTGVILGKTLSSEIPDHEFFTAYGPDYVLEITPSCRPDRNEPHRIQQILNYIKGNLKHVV
Description: (§2) The purified compounds of all fragments and natural product derivatives were evaluated for inhibitory effects on three different classes of HDAC proteins (class I, IIa, and IIb). […] All activity was determined by using a fluorescence-based in vitro assay. Class I HDAC proteins that were evaluated were HDAC1, HDAC2, HDAC3, HDAC8, HDAC4, and HDAC6. Class IIa HDAC protein were HDAC4 and the Class IIb HDAC protein were HDAC6.
(§3) HDAC-Glo™ I/II Assay and Screening System (Promega) was used to determine the HDAC inhibitory activity. Recombinant human HDAC1, HDAC2, HDAC3, HDAC4, HDAC6 and HDAC8 were purchased from BPS Bioscience Inc. The inhibitory activities of the test compounds against recombinant HDAC were performed according to reagent suppliers' protocols.
(§4) All test compounds were firstly dissolved in DMSO to make 10 mM stock solution. A certain amount of stock solution was diluted to 1 mM by DMSO and then reduced by tris(2-carboxyethyl)phosphine hydrochloride (TCEP) in a molar ration of 1:1.5 for 20 min at ambient temperature prior to being assayed. After reduction, a series of fivefold dilutions of each reduced compound were prepared with HDAC-Glo buffer and 25 μL of each dilution was added into a well on a 96-well plate. HDAC enzymes were diluted to the desired concentrations with HDAC-Glo buffer and 25 μL of each diluted enzyme was dispensed into a well to mix with 25 μL of testing compound at room temperature for 30-60 seconds. After the reaction mixture had been incubated at room temperature for 1 hour, 50 μL of HDAC-Glo reagent was added to each reaction well and mixed up for 30-60 seconds. Finally, the plate was incubated at room temperature for an additional 30 minutes before the luminescence was measured on a Synergy HT plate reader (Bio-Tek). The luminescence intensity data were analyzed using GraphPad Prism 5 (GraphPad Software). In the absence of any test compound, the luminescence intensity (I100) in each data set was defined as 100% activity. In the absence of both of HDAC enzymes and test compound, the luminescence intensity (I0) in each data set was defined as 0% activity. The relative activity (%) in the presence of each compound was calculated according to the following equation: % activity=(I−I0)/(I100−I0), where I=the luminescence intensity if a compound is present in the reaction. Experiments were performed in triplicate and the calculated mean values were used for plotting.

[4] = test system: RFX393 (renal); experiment: MTT antiproliferative assay, RFX393; assay type: cell-based; conditions: MTT, 48 h; read-out: Antiproliferative Activity GI50, Renal RFX393
Description: as §1

[5] = target: T2, Recombinant human HDAC1 (Homo sapiens, UniProt Q13547); experiment: HDAC-Glo I/II assay, HDAC1; assay type: biochemical; conditions: for IC50: Class I HDAC, compounds reduced by TCEP prior to assay, read-out: IC50 of HDAC1; for Class I selectivity Ratio HDAC 1/HDAC8: ratio of IC50 values
T2 construct: purchased BPS Bioscience Inc
T2 sequence (Q13547 whole entry): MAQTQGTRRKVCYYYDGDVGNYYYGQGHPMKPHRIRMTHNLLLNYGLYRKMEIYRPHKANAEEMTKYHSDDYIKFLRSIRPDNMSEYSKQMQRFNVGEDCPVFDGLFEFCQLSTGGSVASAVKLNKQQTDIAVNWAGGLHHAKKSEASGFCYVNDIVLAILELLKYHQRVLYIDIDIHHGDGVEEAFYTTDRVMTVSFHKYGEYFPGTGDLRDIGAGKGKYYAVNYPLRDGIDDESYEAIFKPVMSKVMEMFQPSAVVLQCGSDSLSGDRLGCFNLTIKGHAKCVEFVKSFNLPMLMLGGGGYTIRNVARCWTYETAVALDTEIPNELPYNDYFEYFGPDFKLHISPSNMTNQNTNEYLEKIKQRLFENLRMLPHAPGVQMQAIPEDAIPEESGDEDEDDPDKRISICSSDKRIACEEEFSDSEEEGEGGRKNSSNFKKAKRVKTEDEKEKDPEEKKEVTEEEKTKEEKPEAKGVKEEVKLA
Description: as §2, §3, §4

[6] = 10 mg/mL cpd in 20% DMSO/saline
[7] = target: T3, Recombinant human HDAC2 (Homo sapiens, UniProt Q92769); experiment: HDAC-Glo I/II assay, HDAC2; assay type: biochemical; conditions: Class I HDAC; compounds reduced by TCEP prior to assay
T3 construct: purchased BPS Bioscience Inc
T3 sequence (Q92769 whole entry): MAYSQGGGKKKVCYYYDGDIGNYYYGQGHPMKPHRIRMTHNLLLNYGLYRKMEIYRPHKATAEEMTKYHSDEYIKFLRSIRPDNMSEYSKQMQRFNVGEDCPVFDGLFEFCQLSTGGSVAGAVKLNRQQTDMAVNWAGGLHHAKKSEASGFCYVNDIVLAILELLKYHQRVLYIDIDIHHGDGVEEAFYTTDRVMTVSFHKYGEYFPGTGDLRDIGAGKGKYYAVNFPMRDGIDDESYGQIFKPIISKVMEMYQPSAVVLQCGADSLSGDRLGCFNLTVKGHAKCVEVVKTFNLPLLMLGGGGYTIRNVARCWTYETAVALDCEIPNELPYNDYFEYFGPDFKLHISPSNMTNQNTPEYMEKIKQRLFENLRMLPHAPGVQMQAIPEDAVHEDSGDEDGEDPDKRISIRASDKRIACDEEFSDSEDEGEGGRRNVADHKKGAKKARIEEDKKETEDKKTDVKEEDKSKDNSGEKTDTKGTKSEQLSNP
Description: as §2, §3, §4

[8] = test system: colon (HCT-116), cervical (HeLa), and renal (RFX393) tumor cell lines; experiment: MTT antiproliferative assay, all three tumor cell lines; assay type: cell-based; conditions: HCT-116, HeLa, RFX393; summary of Table 3; read-out: GI50 values against all three tumor cell lines
Description: as §1

Structure (SMILES) | MTD at 2 weeks [1] | GI50 [2] | IC50 [3] | GI50 [4] | IC50 [5] | Class I selectivity Ratio HDAC 1/HDAC8 [5] | Solubility [6] | IC50 [7] | GI50 [8]
COC(=O)[C@H]1CSSCC/C=C/C(O)CC(=O)N[C@H](CCSC)C(=O)N1 (stereo partly drawn) [TDF3m, Methyl (4S,7R,12E)-11-hydroxy-7-[2-(methylsulfanyl)ethyl]-6,9-dioxo-1,2-dithia-5,8-diazacyclopentadec-12-ene-4-carboxylate] | > 200 mg/kg | 200 nM | 63000 nM | 300 nM | 12.5 nM | 0.00028 | Partially soluble | 94.2 nM | 400 nM
CSCC[C@H]1NC(=O)CC(O)/C=C/CCSSC[C@H](C(=O)O)NC1=O (stereo partly drawn) [TDF3, (4S,7R,12E)-11-hydroxy-7-[2-(methylsulfanyl)ethyl]-6,9-dioxo-1,2-dithia-5,8-diazacyclopentadec-12-ene-4-carboxylic acid] | > 200 mg/kg | 300 nM | 62800 nM | 200 nM | 22.9 nM | 0.00036 | Soluble | 87.5 nM | 600 nM
